# US20230242511A1, “FUSED PYRAZOLE AND IMIDAZOLE BASED COMPOUNDS AND USE THEREOF AS GLI1 INHIBITORS” (GLIXOGEN THERAPEUTICS LTD., priority 2020, published 2023)
# Read-outs that look alike come from different tables or passages of the source.
# How the values were obtained:
# [1] = tested on: EAE mouse model; assay: Efficacy EAE model, PLP139-151/CFA in SJL/L mice; type: in vivo; conditions: daily 10 mg/Kg or 50 mg/Kg, until Day 57, vs vehicle
# Method: (§1) N=12 for all groups except for dexamethasone which had n=5 (FIG. 1B).
# Eight-weeks old female SJL/L mice were immunized on Day 1 with an emulsion of PLP139-151/CFA and injected with pertussis toxin to induce disease. At the start of clinical signs (Days 9-10), the animals were administered with compound 6 (Glx-077) at a daily dose of 10 mg/Kg or 50 mg/Kg, or with a vehicle (15% HP-β-CD in water) until completion of trial (Day 57). A graph, summarizing the results of this experiment is represented in FIG. 1A.
# [2] = tested on: EAE mouse model; assay: Efficacy EAE model, MOG35-55/CFA in C57B16 mice; type: in vivo; conditions: daily 10 mg/Kg, until Day 28, vs vehicle
# Method: as §1
# Thirteen-weeks old female C57B16 mice were immunized on Day 1 with an emulsion of MOG35-55/CFA and injected with pertussis toxin to induce disease. At the start of clinical signs (Days 9-10), the animals were daily administered with Glx-077, Glx-088P3, clemastine fumarate (at 10 mg/Kg) or vehicle (15% HP-β-CD in water) until completion of experiment (Day 28). Mice administered with dexamethasone were used as a positive control group. Clinical score of the mice was measured daily. A graph, summarizing the results of this experiment is represented in FIG. 1B.
# [3] = tested on: Gli1; assay: Gli1-Luciferase Reporter Assay (Shh Light 2 cells); type: cell-based, mouse
# Method: Cell line: Shh Light 2 cell line which is based on NIH3T3 mouse fibroblast cell line genetically modified to stably express the Firefly Luciferase reporter gene under the transcription control of Gli 1 binding sequence and the Renila Luciferase gene under a control pRL-SV40 promoter was licensed from Johns Hopkins University (JHU).
# Cell culture: Cells are cultured in Complete Medium [formulated as DMEM, 10% FBS, 1% sodium pyruvate, 1% L-glutamine, 0.4 mg/ml G418, 0.15 mg/ml Zeocin] until 80% confluence is achieved. Once sufficient confluency is achieved, cells are detached from the 10 cm culture dish using trypsin-EDTA, washed in Growth Medium [formulated as DMEM, 10% FBS, 1% sodium pyruvate, 1% L-glutamine, 1% PenStrep] and resuspended in fresh Growth Medium at a concentration of 4.3*10^5 cells/ml. To a white 96-well plate […] of cells suspension is transferred and incubated in a humified incubator at 37° C. with 5% CO2 overnight until the cells reach confluency the following day.
# On the following day, a 13 point 1:1 dilution of a stock 20 mM Gli 1 inhibitor compound in DMSO is performed and […] of each diluted Gli1 inhibitor compound is diluted in […] Assay Medium [formulated as DMEM, 2% FBS, 1% sodium pyruvate, 1% L-glutamine, 1% PenStrep]. The Growth Medium is removed from the cell-plated 96-well plate and […] of the diluted Gli1 inhibitor is transferred to each well and plates are incubated at 37° C. and 5% CO2 for 30 minutes.
# Then, the plates are removed from incubator and Purmorphamine (a Smoothened agonist to induce Hedgehog signaling and Gli1 activation in cells) at a final concentration of […] is added to each well and the plates are reinserted to the incubator for 24 hours incubation. The following day, Firefly and Renila Luciferase levels are measured using the Dual-Glo Luciferase system and the ratio between the Firefly and Renila is calculated for normalization of signal. The ratio of the signal in the treated cells is plotted vs. compound concentration and the IC50 value of each compound is calculated by generating a non-linear regression curve using the 4PL function in GraphPad Prism 8 software.
# The primary screening assay is based on a NIH3T3 mouse fibroblast cell line genetically modified to stably express the Firefly Luciferase reporter gene under the transcription control of Gli1 binding sequence and the Renila Luciferase gene under a control pRL-SV40 promoter. This assay allows the determination of a compound's IC50 value in inhibiting Gli1 activity.
# [4] = Pharmacokinetic Study; type: in vivo; conditions: for Cmax: in ng/mL (unit assumed)
# Method: Compounds were formulated in 15% HP-b-CD in water (IV formulation was at pH=5.0 and PO was at pH=3.0). Blood was obtained from facial vein pre-dosing and at 0.083, 0.25, 0.5, 1, 2, 4, 8, 24 hours post dosing for a total of 9 time-points, semi-serial bleeding. For PO dosing, another group of animals (n=3) were terminated at 2 hours post dosing and brains were extracted to analyze brain exposure and calculate brain/plasma ratio. Lower limit of quantification (LLOQ) for brain and plasma samples was 1 ng/ml.
# [5] = Mus musculus, Shh Light2, in-vitro, read-out: concentration inhibiting 50% of Gli1 activity
# [6] = Shh Light 2 cell line, Purmorphamine-induced, 24 hours, read-out: Luciferase cell based IC50
# [7] = Mus musculus, Shh Light2, Shh Light 2 cell line, Purmorphamine-induced, 24 hours, read-out: Luciferase cell based IC50
smiles,measurement,setting,value
Cn1c(-c2ccccc2Cl)nc2c1CN(Cc1nc3cccnc3o1)CC2 [Compound 6],clinical outcome (FIG. 1A),[1],improvements in clinical outcome
same,clinical outcome / clinical score (FIG. 1B),[2],improvements in clinical outcome
Cn1c(-c2ccccc2Cl)nc2c1CN(Cc1cnc3ccccc3n1)CC2 [Compound 11],IC50,[3]; [5],< 17 nM
Cc1nc(CN2CCc3nc(-c4ccccc4Cl)n(C)c3C2)nc2ccccc12 [Compound 12],IC50,"[3]; Mus musculus, Shh Light2, benzyl series compounds, read-out: in-vitro efficacy IC50",5.6 nM
Cn1c(-c2ccccc2Cl)nc2c1CN(Cc1ncnc3ccccc13)CC2 [Compound 13],IC50,[3]; [5],< 17 nM
Cn1c(-c2ccccc2Cl)nc2c1CN(Cc1nc3ccccc3s1)CC2 [Compound 14],IC50,[3]; [5],< 17 nM
COc1cccc2c1CN(C1CCc3nn(-c4ccccc4Cl)c(C)c3C1)C2 (centres unmarked) [Glx-088P3],IC50,[3]; [6],0.18 nM
same,AUCINF-plasma,"[4]; IV, 2 mg/Kg",517 ng·h/mL
same,T½,"[4]; IV, 2 mg/Kg",1.53 h
same,% F,"[4]; PO, 10 mg/Kg",38%
same,AUCINF-plasma,"[4]; PO, 10 mg/Kg",517 ng·h/mL
same,T½,"[4]; PO, 10 mg/Kg",1.5 h
same,Brain levels 2 h post PO administration,"[4]; PO, 10 mg/Kg",123 ng/g
same,Brain/plasma ratio (2 h),"[4]; PO, 10 mg/Kg",208%
same,Cmax,"[4]; PO, 10 mg/Kg",268
same,% F,"[4]; PO, 30 mg/Kg",65.6%
same,AUCINF-plasma,"[4]; PO, 30 mg/Kg",2674 ng·h/mL
same,T½,"[4]; PO, 30 mg/Kg",1.69 h
same,Brain levels 2 h post PO administration,"[4]; PO, 30 mg/Kg",1104 ng/g
same,Brain/plasma ratio (2 h),"[4]; PO, 30 mg/Kg",236%
same,Cmax,"[4]; PO, 30 mg/Kg",1199
same,clinical outcome / clinical score (FIG. 1B),[2],improvements in clinical outcome
COc1cccc2c1CN(C1CCc3nn(-c4ccccc4Cl)c(C)c3C1)C2 (centres unmarked) [Glx-088RS],IC50,[3]; [6],7.1 nM
same,AUCINF-plasma,"[4]; PO, 10 mg/Kg",748 ng·h/mL
same,T½,"[4]; PO, 10 mg/Kg",1.99 h
same,Brain levels 2 h post PO administration,"[4]; PO, 10 mg/Kg",211 ng/g
same,Brain/plasma ratio (2 h),"[4]; PO, 10 mg/Kg",129%
same,Cmax,"[4]; PO, 10 mg/Kg",698
Cc1c2c(nn1-c1ccccc1Cl)CCC(N1Cc3c(F)ccc(C#N)c3C1)C2 (centres unmarked) [Glx-308],IC50,[3]; [7],55 nM
Cc1c2c(nn1-c1ccccc1Cl)CCC(N1Cc3cccc(C#N)c3C1)C2 (centres unmarked) [Glx-322],IC50,[3]; [7],12 nM
COc1ccc(C#N)c2c1CN(C1CCc3nn(-c4ccccc4Cl)c(C)c3C1)C2 (centres unmarked) [Glx-341],IC50,[3]; [7],16.7 nM
COc1cccc2c1CN([C@H]1CCc3nn(-c4ccccc4Cl)c(C)c3[C@@H]1O)C2 [Glx-344A],IC50,[3]; [7],172 nM
COc1cccc2c1CN(C1CCc3nn(-c4ccccc4Cl)c(C)c3[C@@H]1O)C2 (some centres unmarked) [Glx-344],IC50,[3]; [7],385 nM
COc1cccc2c1CC(N1CCc3nn(-c4ccccc4Cl)c(C)c3C1)C2 (centres unmarked) [Glx-369],IC50,[3]; [7],73 nM
COc1cccc2c1CN(C1CCc3nn(-c4ccccc4Cl)c(C)c3C1=O)C2 (centres unmarked) [Glx-402],IC50,[3]; [7],430 nM
